Values quoted from earlier work, collected in patent publication US20020034548A1, “STABILIZED ASCORBIC COMPOSITION” (priority 1998, published 2002).

Columns and labels:
[1] = 5% ascorbic acid solution
[2] = pH 5.0

time to completely decay into oxidized form [1]: a few days
redox potential [2]: +0.127 V
ascorbic acid deprotonated (2% aqueous solution at 25° C.): About 2.4%
pK1 (aqueous solution, room temperature): 4.17
Structure (SMILES): O=C1O[C@H]([C@@H](O)CO)C(O)=C1O [L-ascorbic acid]
